Data published in publication PMC10757720, “Impact of CRAMP-34 on Pseudomonas aeruginosa biofilms and extracellular metabolites” (Frontiers in Cellular and Infection Microbiology, 2023).
Converted amounts (≈) assume the structure as drawn. Where two headings read alike, the source gives them in different places. Positions of bridges follow the written chain, without caps; N, C: chain ends. Non-standard residues stand in square brackets, D forms with d. Residues, ends and D or L forms follow the SMILES beside them. No end group written: not given here. *: point of attachment. X1 = CC[C@H](C)CCCCC(=O)*; Dab = NCC[C@H](N)C(=O)O

Experiments:
[1] = tested on: PAO1; experiment: microbe, parasite or virus in culture; assay type: cell-based, Pseudomonas aeruginosa
Description: Supplement DataSheet_1.docx, table 1: Table S1 Minimum inhibitory concentrations of various drugs against PAO1 | column: MIC(μg/mL)

[2] = tested on: PAO1 planktonic and dispersed bacteria; experiment: Inducible resistance, multi-step induction over 25 generations; assay type: cell-based, Pseudomonas aeruginosa; details: for increase in the MIC value after induction: 25 continuous generations, induction with the agent alone at 1/4 MIC, consistent across planktonic and dispersed bacteria; for MIC values after co-induction with CRAMP-34: antibiotic at 1/4 MIC combined with CRAMP-34 at 1/4 MIC, 25 generations, vs antibiotic alone, planktonic and dispersed bacteria
Description: Bacterial resistance was induced in vitro using a modified multi-step method ([Zhu et al., 2017]). The method of obtaining dispersed bacteria was described previously ([Zhang et al., 2022]). Planktonic bacteria and biofilm dispersion bacteria were induced at the initial 1/4 MIC concentration of antimicrobial agents every 24 hours. The latest MIC was measured every 2 generations and the drug concentration was changed according to the latest results.

[3] = tested on: surface-attached biofilm; details: exogenous addition of succinate and glutamate; ref Sauer et al., 2004; cited from earlier work
[4] = tested on: PAO1 preformed biofilms; experiment: Effect of exogenous glutamate and succinate on PAO1 preformed biofilm biomass; details: preformed 96-h-old biofilms, different concentrations, 37°C, 24 h; certain dose-dependent effect (one way ANOVA)
[5] = Pseudomonas aeruginosa, read-out: MIC

For `NCC[C@H](O)C(=O)N[C@@H]1C[C@H](N)[C@@H](O[C@H]2O[C@H](CN)[C@@H](O)[C@H](O)[C@H]2O)[C@H](O)[C@H]1O[C@H]1O[C@H](CO)[C@@H](O)[C@H](N)[C@H]1O` [Amikacin], which MIC [1, 5] is on record?
Its MIC is 0.25 µg/mL (≈ 0.427 µM).

Which MIC [1, 5] does the source give for `CC[C@H]1OC(=O)[C@H](C)[C@@H](O[C@H]2C[C@@](C)(OC)[C@@H](O)[C@H](C)O2)[C@H](C)[C@@H](O[C@@H]2O[C@H](C)C[C@H](N(C)C)[C@H]2O)[C@](C)(O)C[C@@H](C)CN(C)[C@H](C)[C@@H](O)[C@]1(C)O` [Azithromycin] here?
The MIC was 16 µg/mL (≈ 21.4 µM).

With `CCN1CCN(C(=O)N[C@@H](C(=O)N[C@@H]2C(=O)N3C(C(=O)O)=C(CSc4nnnn4C)CS[C@H]23)c2ccc(O)cc2)C(=O)C1=O` [Cefoperazone] as the compound, how does the MIC [1, 5] read?
The MIC was 4 µg/mL (≈ 6.2 µM).

With `CO/N=C(\C(=O)N[C@@H]1C(=O)N2C(C(=O)[O-])=C(C[n+]3cccc4c3CCCC4)CS[C@H]12)c1csc(N)n1.O=S(=O)(O)O` [Cefoquinol] as the compound, how does the MIC [1] read?
Its MIC is 2 µg/mL.

For `CC(C)(O/N=C(\C(=O)N[C@@H]1C(=O)N2C(C(=O)[O-])=C(C[n+]3ccccc3)CS[C@H]12)c1csc(N)n1)C(=O)O` [Ceftazidime], which MIC [1, 5] is on record?
Its MIC is 1 µg/mL (≈ 1.83 µM).

With `O=C(O)c1cn(C2CC2)c2cc(N3CCNCC3)c(F)cc2c1=O` [Ciprofloxacin] as the compound, how does the “increase in the MIC value after induction” value [2] read?
The value was “sixty-fourfold”.

And the “MIC values after co-induction with CRAMP-34” value [2]?
Its value is “significantly reduced”.

And the MIC [1, 5]?
Its MIC is 0.031 µg/mL (≈ 0.0936 µM).

For `CC[C@H](C)CCCCC(=O)N[C@@H](CCN)C(=O)N[C@H](C(=O)N[C@@H](CCN)C(=O)N[C@H]1CCNC(=O)[C@H]([C@@H](C)O)NC(=O)[C@H](CCN)NC(=O)[C@H](CCN)NC(=O)[C@H](CC(C)C)NC(=O)[C@@H](CC(C)C)NC(=O)[C@H](CCN)NC1=O)[C@@H](C)O` [Colistin] (X1-[Dab]T[Dab][Dab][Dab][dL]L[Dab][Dab]T; lactam 4-C (inferred); N-terminus assumed), which “increase in the MIC value after induction” value [2] is on record?
The value was “thirty-twofold”.

And the “MIC values after co-induction with CRAMP-34” value [2]?
Its value is “significantly reduced”.

What about the MIC [1] of the same compound?
Its MIC is 0.25 µg/mL (≈ 0.214 µM).

With `CCN1CCN(c2cc3c(cc2F)c(=O)c(C(=O)O)cn3C2CC2)CC1` [Enrofloxacin] as the compound, how does the MIC [1, 5] read?
The MIC was 0.5 µg/mL (≈ 1.39 µM).

Which MIC [1, 5] does the source give for `CNC(C)C1CCC(N)C(OC2C(N)CC(N)C(OC3OCC(C)(O)C(NC)C3O)C2O)O1` (centres unmarked) [Gentamicin] here?
Its MIC is 0.5 µg/mL (≈ 1.05 µM).

Which MIC [1, 5] does the source give for `C[C@@H](O)[C@H]1C(=O)N2C(C(=O)O)=C(SCCN=CN)C[C@H]12` [Imipenem] here?
Its MIC is 2 µg/mL (≈ 6.68 µM).

For `C[C@@H](O)[C@H]1C(=O)N2C(C(=O)O)=C(S[C@@H]3CN[C@H](C(=O)N(C)C)C3)[C@H](C)[C@H]12` [Meropenem], which MIC [1, 5] is on record?
The MIC was 0.5 µg/mL (≈ 1.3 µM).

Which MIC [1, 5] does the source give for `CCN1CCN(C(=O)N[C@@H](C(=O)N[C@@H]2C(=O)N3[C@@H]2SC(C)(C)[C@@H]3C(=O)O)c2ccccc2)C(=O)C1=O` [Piperacillin] here?
Its MIC is 2 µg/mL (≈ 3.86 µM).

For `CC[C@H]1OC(=O)[C@H](C)[C@@H](O[C@H]2C[C@@](C)(OC)[C@@H](O)[C@H](C)O2)[C@H](C)[C@@H](O[C@@H]2O[C@H](C)C[C@H](N(C)C)[C@H]2O)[C@](C)(O)C[C@@H](C)/C(=N\OCOCCOC)[C@H](C)[C@@H](O)[C@]1(C)O` [Roxithromycin], which MIC [1, 5] is on record?
Its MIC is 512 µg/mL (≈ 612 µM).

Which MIC ([1]; Pseudomonas aeruginosa) does the source give for `CN[C@H](CC(C)C)C(=O)N[C@H]1C(=O)N[C@@H](CC(N)=O)C(=O)N[C@H]2C(=O)N[C@H]3C(=O)N[C@H](C(=O)N[C@H](C(=O)O)c4cc(O)cc(O)c4-c4cc3ccc4O)[C@H](O)c3ccc(c(Cl)c3)Oc3cc2cc(c3O[C@@H]2O[C@H](CO)[C@@H](O)[C@H](O)[C@H]2O[C@H]2C[C@](C)(N)[C@H](O)[C@H](C)O2)Oc2ccc(cc2Cl)[C@H]1O` [Vancomycin] here?
Its MIC is 1020 µg/mL (≈ 707 µM).

Which results are given for `N[C@@H](CCC(=O)O)C(=O)O` [glutamate]?
reduction in surface-attached biofilm biomass [3]: ~80%; effect of exogenous addition on pre-biofilms (biomass) [4]: significant effects on eradicating pre-biofilms

Which “reduction in surface-attached biofilm biomass” value [3] does the source give for `O=C(O)CCC(=O)O` [succinate] here?
Its value is ~80%.

What about the “effect of exogenous addition on pre-biofilms (biomass)” value [4] of the same compound?
The value was “significant effects on eradicating pre-biofilms”.

For “GLLRKGGEKIGEKLKKIGQKIKNFFQKLVPQPEQ [CRAMP-34]”, which MIC [1] is on record?
The MIC was 31.25 µg/mL.
